Active and inactive are the calls of the source. No rule for the calls is given here.
Assay: modulators of 2-deoxyglucose-induced H9c2 death, dose response, myocardial damage modulator project, cell-based, ATPlite luminescence, rat, set 2 (AID 602210)
Conditions: H9c2 rat cardiomyoblasts, 2-deoxyglucose-induced death, 2 h

Row | SMILES | IC50
1 | COc1cccc(OC)c1C(=O)Nc1cc(C)nn1-c1nc2ccccc2[nH]1 | 4.52 µM
2 | CC1Cc2ccccc2N1C(=O)c1cc2c(=O)n3ccccc3nc2n1C (centres undefined) | 7.6 µM
3 | CC(=O)Nc1cc(-c2ccccc2)cn2c(-c3cccc(C(C)=O)c3)cnc12 | 16 µM (inactive)
4 | CCOc1cccc(-c2nn3c(-c4ccccn4)nnc3s2)c1 | 30.2 µM (inactive)
5 | COc1ccc(CNn2c(-c3cccs3)nc3ccccc3c2=O)cc1OC | 12.9 µM (inactive)
6 | COc1ccc(NC(=O)c2cc(-c3ccc(OC)c(OC)c3)nc3ccccc23)c(OC)c1 | > 79 µM (inactive)
7 | CNC(=O)c1cccc(NC(=O)c2cc(-c3ccccc3)nc3c2cnn3C(C)C)c1 | 14.3 µM (inactive)
8 | NC(=O)c1oc2ccccc2c1NC(=O)c1ccco1 | 32.2 µM (inactive)
9 | COc1ccc(/C=N/NC(=O)c2ccc(COc3cccc4cccnc34)cc2)cc1OC | 12.1 µM (inactive)
10 | CC(=O)c1cccc(-c2cnc3c(NC=O)cc(-c4ccccc4F)cn23)c1 | 17.9 µM (inactive)
11 | OC1CCN(c2c3c(nc4cc(-c5cccc(F)c5)nn24)CCCC3)CC1 | 23.8 µM (inactive)
12 | COC(=O)c1ccc(OCC(=O)Nc2ccccc2C(=O)NC2CC2)cc1 | 11.2 µM (inactive)
13 | CC(=O)Nc1ccc(-c2csc(NC(=O)Nc3ccccc3)n2)cc1 | 1.94 µM
14 | N#Cc1cnn2cc(-c3ncc(C(F)(F)F)cc3Cl)cnc12 | 47.7 µM (inactive)
15 | COc1cccc(-c2cnc3c(NC=O)cc(-c4cccc(C(=O)N(C)C)c4)cn23)c1 | > 79 µM (inactive)
16 | CN(C(=O)c1sc2nc(N3CCOCC3)c3c(c2c1N)CCCC3)c1ccccc1 | 9.97 µM
17 | CCOC(=O)C1CCN(C(=O)c2ccc3c(=O)n4nc(Nc5ccccc5OC)sc4nc3c2)CC1 | 15.9 µM (inactive)
18 | CSc1nc2ccc(S(=O)(=O)Nc3c(C)n(C)n(-c4ccccc4)c3=O)cc2s1 | 8.98 µM
19 | CC(=O)Nc1ccc(NS(=O)(=O)c2cc(-c3n[nH]c(=O)c4ccccc34)ccc2C)cc1 | 44 µM (inactive)
20 | C[C@H](CO)N1C[C@H](C)[C@@H](CN(C)C(=O)Nc2ccc3c(c2)OCO3)Oc2c(NC(=O)Nc3ccc(C(F)(F)F)cc3)cccc2C1=O | > 79 µM (inactive)
21 | COc1cccc(-c2cnc3c(NC(C)=O)cc(-c4cc(OC)c(OC)c(OC)c4)cn23)c1 | > 79 µM (inactive)
22 | O=C(C[C@@H]1C/C=C/CC[C@@H](Cc2ccc(F)cc2)C(=O)O[C@@H](c2ccccc2)CNC1=O)NCCO | 27.5 µM (inactive)
23 | COc1cc(/C=C/c2nc3ccccc3c(=O)n2-c2ccc(O)cc2)ccc1O | > 79 µM (inactive)

Row | SMILES | IC50
24 | CCOc1cc(-c2cc(-c3ccc(N)cc3)nc(N)c2C#N)ccc1O | 11.8 µM (inactive)
25 | COc1cc(C(=O)Nc2nc(-c3cccs3)cs2)cc(OC)c1OC | 8.7 µM
26 | Cc1cc(NC(=O)C2CCCCC2)nc2c1c(=O)oc1ccccc12 | 26.8 µM (inactive)
27 | CC1Nc2ncnc(N3CCN(c4ccccc4)CC3)c2N(Cc2ccc(Cl)cc2)C1=O (centres undefined) | 21.4 µM (inactive)
28 | CCOC(=O)N1CCc2c(sc(NC(=O)CN3CCOCC3)c2C(=O)Nc2ccccc2)C1 | > 79 µM (inactive)
29 | O=C(N/N=C\c1ccccn1)c1cccc(C(=O)N/N=C\c2ccccn2)n1 | 10.2 µM (inactive)
30 | CC(=O)Nc1ccc(Nc2nc(-c3sc(NC(C)=O)nc3C)cs2)cc1 | 18.8 µM (inactive)
31 | CCn1c(O)c(/C=N/N=C2CCCCC2)c2cc(C3=NNC(=O)CC3)ccc21 | 21.6 µM (inactive)
32 | CC(=O)Nc1cc(C)nn1-c1nc2ccccc2s1 | > 79 µM (inactive)
33 | COc1cc2c(cc1OC)CN(c1nc(-c3cccnc3)nc3ccccc13)CC2 | 6.71 µM
34 | Nc1c(C(=O)N/N=C/c2cccnc2)oc2nc(-c3ccco3)cc(-c3ccco3)c12 | 1.63 µM
35 | COc1ccc(COc2cc(-c3cccc(OC)c3)nc3ccc(NC(=O)c4ccc(OC)cc4)cc23)cc1 | 4.21 µM
36 | COc1ccccc1-c1cc(NC=O)c2ncc(-c3cccc(C(C)=O)c3)n2c1 | > 79 µM (inactive)
37 | COc1cc(/C=N/NC(=O)c2cccnc2)ccc1OS(=O)(=O)c1ccc(F)cc1 | 21.2 µM (inactive)
38 | N#Cc1ccccc1S(=O)(=O)N1CCN(c2nc(-c3cccnc3)nc3ccccc23)CC1 | 8.75 µM
39 | COc1cc(C(=O)Nc2ccc(NC(=O)c3cccc(Cl)c3)nc2)cc(OC)c1OC | > 79 µM (inactive)
40 | O=C(NCC(=O)N(Cc1cccs1)C(C(=O)NC1CCCCC1)c1ccco1)c1cccs1 (centres undefined) | 17 µM (inactive)
41 | CC(=O)c1ccc(-c2ccc(C(=O)Nc3nc(-c4ccccn4)cs3)o2)cc1 | 5.91 µM
42 | CCN(C[C@H]1N[C@@](Cc2ccccc2)(C(=O)OC)[C@H]2C(=O)N(C)C(=O)[C@@H]12)S(=O)(=O)c1ccc(OC)cc1 | > 79 µM (inactive)
43 | Cc1c(OCC(=O)NCCN2CCOCC2)ccc2c1oc(=O)c1ccccc12 | 17.1 µM (inactive)
44 | COc1ccc(-c2nnc(-c3cc(OC)c(OC)c(OC)c3)o2)cc1OC | 15.9 µM (inactive)
45 | Cc1cccc(NC(=O)c2nc[nH]c2C(=O)NCC(=O)OCc2ccccc2)c1 | > 79 µM (inactive)
46 | CC(=O)Nc1cccc(-c2cc(NC(C)=O)c3ncc(-c4ccccc4)n3c2)c1 | 12.2 µM (inactive)

Row | SMILES | IC50
47 | CC(=O)c1ccc(-c2cnc3c(NC=O)cc(-c4ccc(C(=O)NC5CC5)cc4)cn23)cc1 | 6.57 µM
48 | CC(=O)NCCNc1nc2c(-c3ccccc3)nnn2c2ccccc12 | 13.2 µM (inactive)
49 | CCOC(=O)C1CCCN(C(=O)CCC(=O)Nc2ccc3nc(N4CCOCC4)cc(C)c3c2)C1 (centres undefined) | 38.8 µM (inactive)
50 | CCn1c(=O)cc(OCC(=O)Nc2ccccc2C#N)c2ccccc21 | 43.9 µM (inactive)
51 | COc1cc(/C=C(\C#N)c2nc3ccc(C)cc3[nH]2)c([N+](=O)[O-])cc1OC | 26.4 µM (inactive)
52 | O=C(CCCN1C(=O)c2cccc3cccc(c23)C1=O)N1CCN(c2ccccc2O)CC1 | 19.5 µM (inactive)
53 | O=C(CN1CCN(c2ccccn2)CC1)Nc1ccc([N+](=O)[O-])cc1C(=O)Nc1ccccc1F | 12.8 µM (inactive)
54 | O=C(N/N=C/c1ccccn1)c1[nH]c2ccc([N+](=O)[O-])cc2c1-c1ccccc1 | > 79 µM (inactive)
55 | CCN(CC(=O)Nc1ccc(OC)cc1)C(=O)c1cc(-c2cccs2)nn1-c1ccccc1 | 7.55 µM
56 | O=C(Nc1ccccc1)c1nc[nH]c1C(=O)NCCCCCCNC(=O)c1[nH]cnc1C(=O)Nc1ccccc1 | 4.44 µM
57 | O=C(NCc1ccco1)C(c1ccccc1)N(C(=O)Cc1cccs1)c1ccccc1F (centres undefined) | 22.9 µM (inactive)
58 | Clc1ccccc1-c1nc(N/N=C/c2cccnc2)c2ccccc2n1 | 18.6 µM (inactive)
59 | O=c1oc2ccc3ccccc3c2cc1-c1nnc(-c2ccccc2)o1 | > 79 µM (inactive)
60 | CCCNC(=O)c1c(N)n(-c2cccc(OC)c2)c2nc3ccccc3nc12 | 14.9 µM (inactive)
61 | COc1ccc(-c2ccc3c(c2)S(=O)(=O)c2cccc(C(=O)N4CCN(c5c(Cl)cncc5Cl)CC4)c2C3=O)cc1OC | 8.36 µM
62 | Cc1ccc2[nH]c(=O)c(CN(Cc3ccco3)S(=O)(=O)c3c(C)ccc4nsnc34)cc2c1 | 45.3 µM (inactive)
63 | C[C@H](CO)N1C[C@H](C)[C@@H](CN(C)S(=O)(=O)c2cccs2)Oc2ccc(NC(=O)Nc3ccccc3)cc2C1=O | > 79 µM (inactive)
64 | COc1ccc(-c2cc(NC(C)=O)c3ncc(-c4cccc(C(C)=O)c4)n3c2)cc1OC | 8.06 µM
65 | O=C(NCCN1CCOCC1)c1cnn2c(-c3ccccc3)cc(-c3ccccc3)nc12 | 30.8 µM (inactive)
66 | CC(=O)Nc1cc(-c2cccc(NS(C)(=O)=O)c2)cn2c(-c3cccc(C(C)=O)c3)cnc12 | 16.2 µM (inactive)
67 | Cc1nc(N2CCN(c3ccccn3)CC2)c2c(C)c(C(=O)Nc3ccc(F)cc3)sc2n1 | 14.9 µM (inactive)
68 | Cc1[nH]c2ccccc2c1/C=N/NC(=O)c1cc(-c2cccs2)[nH]n1 | 5.8 µM
69 | C=CC[C@@H](CC(=O)N[C@H](CO)Cc1ccccc1)C(=O)N[C@@H](COC(=O)[C@@H](CC=C)CC(=O)OC(C)(C)C)Cc1ccccc1 | 45.4 µM (inactive)

Row | SMILES | IC50
70 | Cc1nc2c(c(=O)n1CCC1=CCCCC1)c1nc3ccccc3nc1n2/N=C/c1ccccc1 | 15.1 µM (inactive)
71 | CC(C)OCCCNC(=O)CCC(=O)NNc1nc2ccccc2c2nc(-c3ccccc3)nn12 | 22.2 µM (inactive)
72 | O=CNc1cc(-c2ccc(C(=O)NC3CC3)cc2)cn2c(-c3ccc(F)c(Cl)c3)cnc12 | 17.2 µM (inactive)
73 | COc1cccc(/C=N/Nc2nc3ccccc3n3cnnc23)c1 | 3.49 µM
74 | COc1ccc(C(C(=O)NC2CCCC2)N(C(=O)c2snc(C(N)=O)c2N)c2cccc(O)c2)cc1 (centres undefined) | 13.3 µM (inactive)
75 | COC(=O)C1=C(C)N(CCc2ccc(OC)cc2)C(=O)C1 | 33.5 µM (inactive)
76 | CCCc1cc(N2CCN(C(=O)c3ccco3)CC2)n2c(nc3ccccc32)c1C#N | 26.3 µM (inactive)
77 | COc1cc(-c2cc(C(=O)Nc3cccc(C(C)=O)c3)c3ccccc3n2)cc(OC)c1OC | 9.8 µM
78 | COc1cc(NC(=O)c2c(OC)cccc2OC)ccc1NC(=O)c1cc2ccccc2o1 | 13.4 µM (inactive)
79 | COC(=O)c1cccc(S(=O)(=O)N(Cc2ccco2)Cc2cc3cc(OC)ccc3[nH]c2=O)c1 | 11.6 µM (inactive)
80 | Cc1ccc(C(=O)Nc2cccc(C(F)(F)F)c2)cc1NC(=O)c1csc(-c2ccncc2)n1 | > 79 µM (inactive)
81 | CCOc1ccc(C(C(=O)NCC2CCCO2)N(C(=O)c2snc(C(N)=O)c2N)c2ccccc2F)cc1 (centres undefined) | 24 µM (inactive)
82 | O=C(Nc1cccc(Cl)c1)c1nc[nH]c1C(=O)NCCCNC(=O)c1[nH]cnc1C(=O)Nc1cccc(Cl)c1 | > 79 µM (inactive)
83 | COc1ccc(N(CC(=O)N/N=C/c2cccs2)S(=O)(=O)c2ccc(OC)c(OC)c2)cc1 | 28 µM (inactive)
84 | CCOCc1c(C(=O)NC2=Nc3ccccc3NC(CC)=C2C(=O)OCC)oc2ccccc12 | 4.85 µM
85 | COc1cc(-c2cc3nc(NCCOc4ccccc4)ccn3n2)cc(OC)c1OC | 15.8 µM (inactive)
86 | COc1cc(/C=C(\C#N)C(=O)Nc2ccccc2F)ccc1OCCN1CCOCC1 | 41.2 µM (inactive)
87 | CCOC(=O)N1CCN(C(=O)CSc2nc3c(cnn3-c3ccc(C)cc3)c(=O)[nH]2)CC1 | > 79 µM (inactive)
88 | Cc1cc(C)c(C)c(S(=O)(=O)N2CCN(C(=O)c3cc(=O)[nH]c4ccccc34)CC2)c1C | 5.01 µM
89 | CS(=O)(=O)Nc1cccc(NC(=O)c2cccc3c(-c4cccc(C(N)=O)c4)coc23)c1 | 5.97 µM

Source: PubChem BioAssay AID602210 (Sanford-Burnham Center for Chemical Genomics, 2012)
